Measurements taken from patent US5420335A, “Parenteral nutrients based on watersoluble glycerol bisacetoacetates” (priority 1993, dated 1995).
Entries after “also recorded” stand apart in the source; their conditions may differ. Where two headings read alike, the source gives them in different places.

Columns and labels:
[1] = in words; cited from earlier work
[2] = in words, prior art; cited from earlier work
Water solubility = conditions: in words

SMILES | metabolized in vivo [1] | water solubility [2] | water solubility (Water solubility)
CC(=O)CC(=O)OCC(O)CO (stereo not drawn) [monoacetoacetin, monoacetoacetylglycerol] | metabolized in vivo | water soluble | –
CC(=O)CC(=O)OCC(COC(=O)CC(C)=O)OC(=O)CC(C)=O [trisacetoacetyl glycerol, trisacetoacetylglycerol] | – | – | rendered water soluble when in the presence of a glycerol bisacetoacetate; also recorded: insoluble by itself in water; also recorded: surprisingly solubilized in water when in the presence of 1,2- and 1,3-bisacetoacetyl glycerol
